Experimental data as given in patent US20080293795A1, “COMBINATION THERAPY WITH PARP INHIBITORS” (ABBOTT LABORATORIES, priority 2006, published 2008).
Like-named read-outs stand apart in the source and are kept apart here.

Key:
[1] = biological target: T1, Recombinant Human Poly(ADP-Ribose) Polymerase (PARP) (Homo sapiens, UniProt P09874); experiment: PARP1 inhibition assay ([3H]-NAD+, biotinylated histone H1, FlashPlate/SPA); type: biochemical; details: from inhibition curves at various substrate concentrations
T1 construct: purchased Trevigen, Gaithersburg, Md; host or cells: E. coli
T1 sequence (P09874 whole entry): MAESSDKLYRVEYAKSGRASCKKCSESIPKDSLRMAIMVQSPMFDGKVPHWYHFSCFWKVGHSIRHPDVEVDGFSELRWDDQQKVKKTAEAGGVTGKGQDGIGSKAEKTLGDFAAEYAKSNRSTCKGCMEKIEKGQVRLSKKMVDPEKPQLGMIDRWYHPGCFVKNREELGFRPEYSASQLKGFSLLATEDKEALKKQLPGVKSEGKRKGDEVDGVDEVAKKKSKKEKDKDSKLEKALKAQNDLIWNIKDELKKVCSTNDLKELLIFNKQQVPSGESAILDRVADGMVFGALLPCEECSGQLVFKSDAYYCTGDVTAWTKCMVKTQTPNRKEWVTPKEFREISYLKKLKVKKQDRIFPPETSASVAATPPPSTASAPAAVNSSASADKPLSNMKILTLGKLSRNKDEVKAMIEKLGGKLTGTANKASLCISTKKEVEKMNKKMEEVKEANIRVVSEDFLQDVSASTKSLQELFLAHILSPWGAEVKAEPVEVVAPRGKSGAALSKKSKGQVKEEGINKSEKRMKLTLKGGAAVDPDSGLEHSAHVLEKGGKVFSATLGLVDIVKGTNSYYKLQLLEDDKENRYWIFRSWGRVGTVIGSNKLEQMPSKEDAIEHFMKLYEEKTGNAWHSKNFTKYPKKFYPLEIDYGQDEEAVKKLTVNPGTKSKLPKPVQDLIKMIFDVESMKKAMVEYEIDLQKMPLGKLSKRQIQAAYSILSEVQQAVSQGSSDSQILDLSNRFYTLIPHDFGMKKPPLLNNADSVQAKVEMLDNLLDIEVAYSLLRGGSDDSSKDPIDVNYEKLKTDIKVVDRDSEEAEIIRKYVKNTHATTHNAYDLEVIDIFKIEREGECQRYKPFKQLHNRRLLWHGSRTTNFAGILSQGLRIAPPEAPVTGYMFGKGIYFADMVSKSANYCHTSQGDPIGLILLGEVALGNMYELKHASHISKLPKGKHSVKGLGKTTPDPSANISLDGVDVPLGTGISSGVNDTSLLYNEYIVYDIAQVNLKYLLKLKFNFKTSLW
Experimental: Nicotinamide[2,5′,8-3H]adenine dinucleotide and strepavidin SPA beads were purchased from Amersham Biosiences (UK) Recombinant Human Poly(ADP-Ribose) Polymerase (PARP) purified from E. coli and 6-Biotin-17-NAD^+, were purchase from Trevigen, Gaithersburg, Md. NAD^+, Histone, aminobenzamide, 3-amino benzamide and Calf Thymus DNA (dcDNA) were purchased from Sigma, St. Louis, Mo. […] Biotinylated histone H1 was prepared by treating the protein with Sulfo-NHS-LC-Biotin from Pierce Rockford, Ill. […] Streptavidin coated (FlashPlate Plus) microplates were purchased from Perkin Elmer, Boston, Mass.
PARP1 assay was conducted in PARP assay buffer containing 50 mM Tris pH 8.0, 1 mM DTT, 4 mM MgCl2. […] 170 μl of the stopped reaction mixtures were transferred to streptavidin Flash Plates, incubated for 1 hr, and counted using a TopCount microplate scintillation counter.

[2] = tested on: HCT-116 tumors; experiment: HCT-116 tumors in nude mice, combination with radiotherapy; type: in vivo; details: combination with radiotherapy (2 Gy/day, 10 doses) vs radiotherapy or compound alone; 6.25, 12.5 or 25 mg/kg/day i.p. OMPs 14 days; FIG. 1
Experimental: This study was done in nude mice bearing HCT-116 tumors in the leg. Three days (−3) prior to the beginning of radiotherapy, mice were implanted i.p with OMPs delivering A-620223 at 0, 6.25, 12.5, or 25 mg/kg/day for 14 days. Starting day 0 mice received radiation treatment (2 Gy/day) for 10 doses alone or in combination with the 3 different doses of 2-(N-propylpiperidin-4-yl)benzimidazole-4-carboxamide.

[3] = tested on: B16F10 murine melanoma; experiment: B16F10 murine melanoma, combination with TMZ; type: in vivo, C57BL/6 mice; details: A-861695 25, 12.5 or 3.1 mg/kg/day p.o. b.i.d. + TMZ 62.5 mg/kg/day p.o. q.d. X5; FIG. 2
Experimental: This study was done on mice with B 16F10 murine melanoma. Mice were divided into six treatment groups with 8-10 mice per group. See figure two for treatment groups. B16F10 cells were injected s.c. into C57BL/6 mice on day 0. Dosing was initiated on day one. A-861695 was administered p.o., b.i.d. on days 1-14. On days 3-7 temozolomide (TMZ) was administered p.o., q.d. (for the groups receiving both TMZ and A-861695, TMZ was given two hours after the A-861695 was administered).

[4] = tested on: MX-1 flank xenograft; details: TMZ at 50 and 12.5 mg/kg/day
From the text: All mice were ear tagged. […] At various intervals following tumor cell inoculation, the individual tumor dimensions were serially measured using calibrated microcalipers and the tumor volumes calculated according to the formula V=L×W^2/2 (V:volume, L:length, W:width). Mice were humanely euthanized when the tumor volumes reached a predetermined size.

[5] = tested on: MX-1 breast carcinoma xenograft; experiment: MX-1 breast carcinoma xenograft, combination with cisplatin; type: in vivo, nude mice; details: FIG. 5
Experimental: In this study the efficacy of A-861695 in combination with cisplatin was evaluated in the MX-1 breast carcinoma xenograft model in nude mice. Tumors were size-matched to 100 mm^3 on day 16 and PARP inhibitor therapy (p.o., b.i.d. x8) was initiated the same day. A single dose of cisplatin at 6.0 mg/kg/day was administered i.p. day 18. Data, shown in FIG. 5, are mean ±S.E.M. of 9 mice per treatment group.

[6] = tested on: MX-1 breast carcinoma xenograft; experiment: MX-1 breast carcinoma xenograft, combination with carboplatin; type: in vivo, scid mice
From the text: This cell line was derived from a person with a poorly differentiated mammary carcinoma.
Data presented in FIG. 4 are mean ±S.E.M. of 8-10 mice per treatment group.

[7] = tested on: MDA-231-LN-luc cells in the brain striatum; details: for survival to 300% tumor change endpoint: Kaplan-Meier, Logrank, FIG. 23
[8] = tested on: HSB T-cell ALL; JM1 pre-B ALL; P115 primary AML cells; experiment: TMZ and ABT-888 combinations in leukemia cells (FIGS. 9-11); details: differing amounts of TMZ and ABT-888
[9] = tested on: DoHH-2 flank tumor xenograft; details: for efficacy at reducing the Mean Tumor Volume, alone: single agent
Experimental: Animals were size matched on day 15 to an approximate tumor volume of 503 mm^3.
Group mouse weights were recorded three times a week to monitor for weight loss due to toxicity or excessive tumor burden.

[10] = tested on: PC3M-Luc human prostate carcinoma; experiment: Orthotopic PC3M-Luc human prostate carcinoma model (BLI); type: in vivo, male SCID-C.B17 mice; details: vs vehicles, p<0.01
Experimental: Bioluminescent PC-3M-luciferase-C6 osteolytic human prostate cancer cells, constitutively expressing luciferase (Caliper Life Sciences, Hopkinton, Mass.) were orthotopically injected into the prostates of 10-week-old male SCID-C.B17 mice (C.B-17/IcrCrl-scid-BR, Charles River Labs). Mice were housed in a facility with constant humidity, temperature and a 12-h light-dark cycle. Mice were anesthetized with intramuscular injections of ketamine (40 mg/kg) and rompum (5 mg/kg) before surgery. The surgical region was shaved and sterilized with iodine and alcohol swabs. A lower midline incision was made to access the prostate. The left lobe of the dorsal prostate was injected with 1×10^6 PC3M-Luc cells (975 photon/second/cell) in 30 μl (1:1 matrigel, Collaborative Biomedical Products, Bedford, Mass.). The peritoneal cavity was closed with 4-0 suture and skin incision was closed with clip.
In vivo bioluminescent image (BLI) was performed with an IVIS® Imaging System (Caliper Life Sciences, Hopkinton, Mass.). […] Images and measurements of bioluminescent signals were acquired and analyzed using Living Image® software (Caliper Life Sciences, Hopkinton, Mass.). Uniform region of interests (ROIs) were used across all groups and time points to achieve quantification of bioluminescent signal. […] The mice were then monitored with this system at weekly intervals. […]

[11] = Valproic acid and radiotherapy (FIG. 6)

With `CCCN1CCC(c2nc3cccc(C(N)=O)c3[nH]2)CC1` [2-(N-propylpiperidin-4-yl)benzimidazole-4-carboxamide] the Ki [1] was 8.6 nM and the “reduction of tumor size” value [2] was “significant improvement in the reduction of tumor size”.
`NC(=O)c1cccc2[nH]c(C3CN(CC4CC4)C3)nc12` [2-[1-(cyclopropylmethyl)azetidin-3-yl]-1H-benzimidazole-4-carboxamide] showed a Ki [1] of 19 nM.
Work on `NC(=O)c1cccc2[nH]c(C3CCN(CC4CC4)C3)nc12` (stereo not shown) [2-[1-(cyclopropylmethyl)pyrrolidin-3-yl]-1H-benzimidazole-4-carboxamide] yielded a Ki [1] of 5.2 nM.
For `NC(=O)c1cccc2[nH]c(C3CCN(Cc4ccncc4)C3)nc12` (stereo not shown) [2-[1-(pyridin-4-ylmethyl)pyrrolidin-3-yl]-1H-benzimidazole-4-carboxamide], the Ki [1] was 14.2 nM.
For `CC(CCc1ccccc1)N1CCC(C)(c2nc3c(C(N)=O)cccc3[nH]2)C1` (stereo not shown) [2-[3-methyl-1-(1-methyl-3-phenylpropyl)pyrrolidin-3-yl]-1H-benzimidazole-4-carboxamide], the Ki [1] was 12 nM.
Work on `CC1(c2nc3c(C(N)=O)cccc3[nH]2)CCN(Cc2ccncc2)C1` (stereo not shown) [2-[3-methyl-1-(pyridin-4-ylmethyl)pyrrolidin-3-yl]-1H-benzimidazole-4-carboxamide] yielded a Ki [1] of 8.9 nM.
`NC(=O)c1cccc2[nH]c([C@H]3CCCN3C3CCC3)nc12` [2-[(2R)-1-cyclobutylpyrrolidin-2-yl]-1H-benzimidazole-4-carboxamide] showed a Ki [1] of 142 nM.
Compound `CC(C)N1CCC[C@@H]1c1nc2cccc(C(N)=O)c2[nH]1` [2-[(2R)-1-isopropylpyrrolidin-2-yl]-1H-benzimidazole-4-carboxamide] has a Ki [1] of 12.8 nM.
For `CCCN1CCC[C@@H]1c1nc2c(C(N)=O)cccc2[nH]1` [2-[(2R)-1-propylpyrrolidin-2-yl]-1H-benzimidazole-4-carboxamide], the Ki [1] was 146 nM.
`NC(=O)c1cccc2[nH]c([C@@H]3CCCN3C3CCC3)nc12` [2-[(2S)-1-cyclobutylpyrrolidin-2-yl]-1H-benzimidazole-4-carboxamide] showed a Ki [1] of 338 nM.
`CCN1CCC[C@H]1c1nc2c(C(N)=O)cccc2[nH]1` [2-[(2S)-1-ethylpyrrolidin-2-yl]-1H-benzimidazole-4-carboxamide] gave a Ki [1] of 49 nM.
In the case of `CC(C)N1CCC[C@H]1c1nc2c(C(N)=O)cccc2[nH]1` [2-[(2S)-1-isopropylpyrrolidin-2-yl]-1H-benzimidazole-4-carboxamide], the Ki [1] is reported as 19.3 nM.
With `CCCN1CCC[C@H]1c1nc2c(C(N)=O)cccc2[nH]1` [2-[(2S)-1-propylpyrrolidin-2-yl]-1H-benzimidazole-4-carboxamide] the Ki [1] was 129 nM.
In the case of `CN(C)S(=O)(=O)N1CC(C)(c2nc3c(C(N)=O)cccc3[nH]2)C1` [2-{1-[(dimethylamino)sulfonyl]-3-methylazetidin-3-yl}-1H-benzimidazole-4-carboxamide], the Ki [1] is reported as 7 nM.
With `CN(C)S(=O)(=O)N1CCC(C)(c2nc3c(C(N)=O)cccc3[nH]2)CC1` [2-{1-[(dimethylamino)sulfonyl]-4-methylpiperidin-4-yl}-1H-benzimidazole-4-carboxamide] the Ki [1] was 8.8 nM.
Work on `CN(C)S(=O)(=O)N1CC(c2nc3c(C(N)=O)cccc3[nH]2)C1` [2-{1-[(dimethylamino)sulfonyl]azetidin-3-yl}-1H-benzimidazole-4-carboxamide] yielded a Ki [1] of 16 nM.
For `CN(C)S(=O)(=O)N1CCC(c2nc3c(C(N)=O)cccc3[nH]2)CC1` [2-{1-[(dimethylamino)sulfonyl]piperidin-4-yl}-1H-benzimidazole-4-carboxamide], the Ki [1] was 31.1 nM.
For `C[C@]1(c2nc3c(C(N)=O)cccc3[nH]2)CCCN1` [ABT-888, 2-[(2R)-2-methylpyrrolidin-2-yl]-1H-benzimidazole-4-carboxamide], the “potentiation of TMZ efficacy” value [3] was “significantly potentates the TMZ efficacy in a dose dependent manner”, the “effect on toxicity of TMZ (% mean body weight loss)” value [4] was “did not exacerbate the toxicity of TMZ” and the “potentiation of cisplatin activity” value [5] was “pronounced potentiation of cisplatin activity”. For the same compound, the “potentiation of carboplatin (tumor volumes)” value ([6]; A-861695 25 mg/kg/day s.c. OMPs 14 days + carboplatin 10 and 15 mg/kg/day) was “pronounced potentiation of carboplatin”, the “blood brain barrier crossing” value (rat, in vivo) was “crosses the blood brain barrier” and the “effect of co-administration of TMZ on plasma PK profile” value (tumor-bearing rats) was “did not alter the plasma PK profile”. For the same compound, the “survival to 300% tumor change endpoint” value [7] was “profoundly improved survival compared to TMZ treatment alone”, the “effect on toxicity of TMZ” value [8] was “enhancement of toxicity of TMZ” and the “Observations (toxicity assessment)” value ([9]; Scid female mice, same dosing) was “None”. The “efficacy at reducing the Mean Tumor Volume, alone” value [9] was “no efficacy”.
In the case of `Cn1nnc2c(C(N)=O)ncn2c1=O` [TMZ, temozolomide], the “efficacy after first treatment schedule (day 30)” value [10] is reported as “significantly better than their vehicles”, the “survival to 300% tumor change endpoint” value [7] is reported as “significantly increased survival” and the “Weight loss (Observations)” value ([7]; after last dose of 2nd cycle) is reported as > 10% after last. The Mortality ([7]; dead/total mice) was 0/11, the “Observations (toxicity assessment)” value ([9]; female, Scid, mouse, in vivo) was “Slight” and the “efficacy at reducing the Mean Tumor Volume, alone” value [9] was “no efficacy”.
In the case of `N.N.O=C([O-])C1(C(=O)[O-])CCC1.[Pt+2]` [carboplatin], the “tumor inhibition as a single agent” value ([6]; carboplatin 5, 10, 15 mg/kg/day i.p. day 20, 24, 27, FIG. 4) is reported as “dose-dependent tumor inhibition” and the “tumor volume course, monotherapy” value ([6]; carboplatin monotherapy 10 mg/kg/day) is reported as “only delayed tumor growth”.
For `CCCC(CCC)C(=O)O` [valproic acid], the effect on radiotherapy [11] was “can enhance the effects of radiotherapy”.
